Measured values published in patent US4107158A, “Process for making an octapeptide useful for the treatment of diabetes” (Choay S.A., priority 1974, dated 1978).
Where no end group is shown, it is not given here.

Tests used:
[1] = test system: isolated hemidiaphragm of the rat; test: Consumption of glucose in vitro, isolated rat hemidiaphragm; format: cell-based, Wistar albino male rats
Description: To follow this consumption, the isolated hemidiaphragm of the rat in vitro was used. The method employed is that described by Park et al. (Effect of insulin on free glucose content of rat diaphragm in vitro -- Amer. J. Physiol. 182 : 12 - 16, 1955). The hemidiaphragm derived from Wistar albino male rats each weighing 200 to 250 g was used. The rats were fed freely for 7 days and then starved for 24 hours. The solutions studied contained 2 mg/ml of glucose, 500 μU/ml of insulin. The compound (I) was introduced at 250 μg/ml. The consumption of glucose related to the weight of tissue in grams and per hour was under these conditions: […]

[2] = test system: mice; test: Influence on glycemia in mice after glucose injection; format: in vivo
Description: d. Influence of octapeptide (I) on glycemia has been determined in mice under conditions similar to those described for rabbits. The experiment included two series of tests aimed at studying the immediate effects and the prolonged effects.
In the first series of tests, a simultaneous injection of glucose and of the octapeptide (1) was made, and the lowering of glycemia with respect to that of control animals which had not received glucose, was followed as a function of time.
The injections were respectively of 0.25 g of glucose and 2 mg per kilo of body weight of the animal, namely about 40 μg, of octapeptide (I) or […].
In the second series of tests, the mice received the product before the injection of glucose. Three injections each of 40μg of octapeptide (1) were administered respectively 72, 48 and 24 hous before the injection of glucose.

[3] = test system: glucose receptors of the Langerhans islets; test: Glucose-stimulated insulin liberation from Langerhans islets of treated animals; format: cell-based; conditions: islets removed one day or four days after injection of octapeptide; versus controls
Description: Finally, the effect of the octapeptide (I) on the glucose receptors of the Langerhans islets was determined. For this purpose, the octapeptide (I) was injected into animals.
One day or four days later, the animals were killed and the islets of Langerhans removed. The latter were placed in a reaction medium supplemented with glucose, and the amount of insulin liberated was determined and compared tocontrols.

[4] = test system: insulin receptors of lipid cells; test: Insulin binding to trypsinated lipid cells; format: cell-based; conditions: octapeptide introduced into the medium; trypsinated cells alone no longer fix insulin
Description: In an attempt to elucidate the mechanism of action of the octapeptide (I) with respect to insulin, the phenomena were first studied at the level of the insulin receptors of lipid cells trypsinated to destroy said receptors.

[5] = test system: hepatic cells; test: Insulin binding to hepatic cells; format: cell-based
Description: In the same way, the ratio of insulin binding to hepatic cells placed in a suitable reaction medium was measured. When the medium contains octapeptide (I), the ratio of insulin binding to the hepatic cells increases. The result is similar if the said cells are incubated with octapeptide (I).

[6] = test system: diabetic rats; test: Effect on glycemia in diabetic animals; format: in vivo; conditions: glucose 0.5 g/kg; for course of glycemia after simultaneous injection with glucose: diabetic rats fasted 4 hours, octapeptide 2 μg/g
Description: In this test, the drop in glycemia was compared after the simultaneous injection of glucose, on the one hand, and, on the other hand, either of the octapeptide at the dosage of 2 μg (I), or of insulin, or again of both at once. In that latter case the dosage of octapeptide used was also 2μg/g. The tests were carried out on diabetic rats, kept fasting for 4 hours before the injection of glucose (at the dose of 0.5 g/kg of animal).

[7] = target: glyceraldehyde 3-phosphate dehydrogenase (Homo sapiens, UniProt P04406); test: Enzymatic effect in vitro: lifting of somantine inhibition of glyceraldehyde 3-phosphate dehydrogenase; format: biochemical
Description: In this test, the compound (I) was tested for its ability to raise the inhibition of a somantine extracted from a plasma with respect to the action of glyceraldehyde 3-phosphate dehydrogenase.
To this end, the activity of the enzyme in the presence successively of somantine alone, of the compound (1) alone, and finally in the presence of somantine and of the compound (I), were measured.
In this test, the glyceraldehyde 3-phosphate dehydrogenase was used at a concentration of […], the somantine at 25 μg/ml, and the compound (I) at 50 μg/ml.
The method used for the measurements is that of Pihl and Lang (J. Biol. Chem 237 : 1356 - 1362, 1962).
The percentage of inhibition of the enzyme found under these conditions is as follows: […]

[8] = test system: adult rabbits; test: Effect on the in vivo effect of insulin: intravenous glucose tolerance in the rabbit
Description: The assays were carried out in the course of the tests carried out to determine the resistance to glucose injected by the intravenous route in the rabbit.
These tests were done on adult rabbits, which had been subjected to prior fasting for 24 hours. Blood was drawn off and the glucose level in the blood samples was determined. The measurement was carried out by the ferricyanide method as adapted for the "Technicon Autoanalyser" (J. Biol. Chem. 120 : 51 - 55, 1937). In this way the glucose level on fasting, then its variation after the intravenous injection of glucose, at the dose of 1 gram per kilo, was determined. These measurements were then renewed in rabbits which had received, 5 minutes after the glucose, an intravenous injection of the compound (1) (5μg/kg).

[9] = test system: mice; test: Tolerance: acute and subacute toxicity study in mice; format: in vivo; conditions: 1 month, daily dosages 5 to 10 times the active dosage
Description: An acute and subacute toxicity study was carried out on mice for 1 month, each mouse receiving daily dosages corresponding to 5 to 10 times the active dosage.

glyceraldehyde 3-phosphate dehydrogenase, sequence (P04406 whole entry, species assumed): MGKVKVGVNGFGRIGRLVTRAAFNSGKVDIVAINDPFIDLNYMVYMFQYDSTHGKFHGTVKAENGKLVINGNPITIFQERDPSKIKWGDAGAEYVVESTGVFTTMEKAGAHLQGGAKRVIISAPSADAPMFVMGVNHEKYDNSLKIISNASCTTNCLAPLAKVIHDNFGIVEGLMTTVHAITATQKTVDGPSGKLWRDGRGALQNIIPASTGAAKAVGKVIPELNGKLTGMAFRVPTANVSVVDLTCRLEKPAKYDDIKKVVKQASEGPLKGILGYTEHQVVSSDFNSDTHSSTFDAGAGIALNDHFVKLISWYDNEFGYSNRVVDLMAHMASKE

Substance | consumption of glucose in the presence of insulin (in words) ([1]; compound (I) 250 μg/ml added to glucose + insulin) | drop in glycemia, immediate effect ([2]; simultaneous injection of glucose and about 40 μg octapeptide, versus controls) | drop in glycemia, prolonged effect ([2]; three injections of 40 μg at 72, 48 and 24 hours before glucose, versus controls receiving only glucose) | level of insulin liberated by Langerhans islets in glucose-supplemented medium [3] | insulin binding to trypsinated lipid cells [4] | ratio of insulin binding to hepatic cells ([5]; cells incubated with octapeptide (I)) | ratio of insulin binding to hepatic cells ([5]; medium contains octapeptide (I)) | course of glycemia after simultaneous injection with glucose [6] | effect on the inhibiting effect of somantine (in words) ([7]; compound (I) 50 μg/ml together with somantine 25 μg/ml) | effect on the activity of the enzyme (in words) ([7]; compound (I) alone, 50 μg/ml) | inhibition at 50 µg/mL ([7]; enzyme 0.5 μml, somantine 25 μg/ml, compound (I) 50 μg/ml, read-out: percentage of inhibition of the enzyme) [%] | glucose level reached, compared with fasting level ([8]; glucose 1 g/kg i.v., compound 5 μg/kg i.v.) | decrease in the glucose level after i.v. glucose ([8]; glucose 1 g/kg i.v., compound 5 μg/kg i.v. 5 minutes after glucose, versus rabbits without compound) | persistence of effect on the carbohydrate metabolism after injection ([8]; similar tests at intervals of several days) | toxic effect, macro and microscopic studies [9] | Consumption of glucose ([1]; related to weight of tissue in grams and per hour, glucose 2 mg/ml, insulin 500 μU/ml, compound (I) 250 μg/ml) [mg] | time after which glycemia rises again ([6]; diabetic rats)
LSRLFDNA [compound (I), leucyl--seryl--arginyl--leucyl--phenylalanyl--aspartyl--asparaginyl-alanine] | increased | distinctly more accentuated | more rapid drop in glycemia | very substantial increase | the binking reasppears | similar | increases | practically unmodified | partly suppressed | practically without effect | 1 | less than those which were measured in the fasting rabbits | greater | persists several days | not shown any toxic effect |  | 
insulin: insulin, 500 μU/ml in glucose solution in the hemidiaphragm test |  |  |  |  |  |  |  | decreases rapidly, stabilises, then rises again |  |  |  |  |  |  |  | 4.10 ± 0.15 | about 120 minutes
